This is an account of results in patent US6610683B2, “Treatment of infectious disease using interleukin-1β-converting enzyme (ICE)/CED-3 family inhibitors” (IDUN Pharmaceuticals, Inc., priority 1996, dated 2003).

Structures are written as SMILES. Residues, ends and D or L forms follow the SMILES beside them. *: point of attachment. Cbz = O=C(OCc1ccccc1)*; CH2F = FC*

In assay [1] the test system is granulocytes. The assay is described as follows: Respiratory burst in isolated neutrophils measured by chemiluminescence (opsonized zymosan). It counts as cell-based. The conditions noted are these: FIG. 7. The procedure: Respiratory burst in isolated neutrophils measured by Chemiluminescence
Whole blood anticoagulated with Acid Citrate Dextrose (ACD) with a ratio of 1:5 ACD to blood was collected (150 ml).
Neutrophils were isolated as described above.
Opsonized zymosan was prepared by suspending 125 mg zymosan particles in 25 ml pooled human serum (5 mg/ml) and incubating them for 20 minutes at 37° C. Centrifuge the suspension and resuspend the particles in 7 ml of PBS (18 mg/ml) and stored on ice until use (vortex prior to pipetting).
50 ml of a 250 μM solution of Lucigenin (MW 510.5) was prepared by dissolving 6.4 mg of the solid in 50 ml of PBS-G (+Ca, Mg). 10 μl of PBS-G (+Ca, Mg) to the wells in a white 96 well plate.
50 μl of the 250 μM Lucigenin solution was added to the wells in a white 96 well plate.
Cell preparations were obatined from cell culture (concentration at time zero=5.0×10^6 cells/ml) with PBS-G (+Ca, Mg). 20 μl of the neutrophil suspension was suspended to the appropriate wells and the plate was incubated the plate at 37° C. for three minutes. 10 μl of the opsonized zymosan was added to the wells.
The plate was read on the luminometer (Labsystems Luminoskan, Needham Heights, Mass.) for 14 min. at 37° C. in the kinetic mode and record results using the software DeltaSoft.
The ability to undergo the respiratory burst is another measure of granulocyte viability. The respiratory burst is a physiological response of granulocytes to foreign stimuli such as bacteria. In this example, the method for inducing the respiratory burst utilized opsonized bacterial zymosan. The respiratory burst was measured via chemiluminescence.

The subject of assay [2] is granulocytes in whole blood. The assay is described as follows: Whole blood assay: survival of granulocytes by hypodiploid analysis via flow cytometry. It counts as cell-based. Particulars: time zero. The procedure:
The following reagents were used:
anti-CD32-FITC monoclonal antibody obtained from Pharmingen.
25 Lysing Solution (10×Stock: 89.9 g NH4Cl;
(DPBS without calcium or magnesium obtained from Irivine Scientific. 2% fetal bovine serum in DPBS stored at 4° C. 50 μg/ml propidium iodide in DPBS sterile filtered and stored at 4° C.)
200 μl blood sample/2.8 ml 1×lysis solution in a 15 ml polypropylene conical tube.
Cap and invert to mix. Leave at room temperature for 3-5 minutes.
Centrifuge in a table-top Sorvall at 1200 rpm for 5 minutes at 4° C.
Aspirate supernate. Resuspend pellet in 200 μl/sample 2% FBS/DPBS. Add 20 μl/sample anti-CD32-FITC. Incubate 30 minutes on ice in the dark.
Add 5 ml/sample DPBS. Centrifuge at 1000 rpm for 5 minutes at 4° C.
Aspirate supernate. Resuspend pellet in1 ml/sample 2% FBS/DPBS.
Add 3 ml/sample ice-cold 95% EtOH dropwise while vortexing gently.
Incubate samples on ice in the dark for 30 minutes.
Centrifuge at 1000 rpm for 5 minutes at 4° C.
Resuspend each sample in 50 μl 5 mg/ml RN'ase. Transfer sample to 900 μl/sample […] Propidium Iodide in 12×75 mm Falcon polystyrene tubes.
Incubate on ice for 30 minutes.
Analyze samples by flow cytometry (argon laser) for forward and side scatter and fluorescence.
Survival of granulocytes in whole blood was measured by hypodiploid analysis in a similar fashion to isolated granulocytes via flow cytometry. […]

The test system of a further assay is motoneurons. The conditions noted are these: in vitro and in vivo; cited from earlier work.
A further assay relates to T-lymphocyte cell line. Particulars: cited from earlier work.
In a further assay the target is T1, ICE (Homo sapiens, UniProt P29466).
T1 sequence (P29466 120-297 limits assumed): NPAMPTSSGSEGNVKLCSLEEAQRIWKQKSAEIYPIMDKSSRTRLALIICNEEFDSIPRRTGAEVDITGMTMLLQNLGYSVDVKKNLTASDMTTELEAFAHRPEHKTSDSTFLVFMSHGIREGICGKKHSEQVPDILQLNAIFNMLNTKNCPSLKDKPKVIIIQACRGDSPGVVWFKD
T1 sequence (P29466 317-404 limits assumed): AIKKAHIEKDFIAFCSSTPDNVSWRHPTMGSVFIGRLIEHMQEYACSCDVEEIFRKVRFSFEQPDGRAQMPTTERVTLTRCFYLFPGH
The conditions noted are these: cited from earlier work.

The test system of assay [3] is granulocytes. The assay is described as follows: Granulocyte survival in culture, hypodiploid nuclei by propidium iodide flow cytometry. The conditions noted are these: at 48 hours; FIG. 6. It counts as cell-based. The procedure:
Whole blood anticoagulated with Acid Citrate Dextrose (ACD) with a ratio of 1:5 ACD to blood was collected (˜100 ml).
Using polypropylene plastic ware, neutrophils are isolated as follows:
30 ml of the whole blood is added to 50 ml polypropylene centrifuge tubes containing 15 ml of 6% Dextran (in Saline). The blood is allowed to sediment for approximately 1 hour at room temperature.
The turbid straw colored layer harvested from the top of the cylinders into 50 ml conical polypropylene tubes. The blood cells were pelleted by centrifugation at 240×g (Sorvall centrifuge at 1200 rpm) for 12 min. at 4° C. with the brake on low. […]
The supernatant was aspirated and the neutrophil pellet resuspended in 4.0 ml cold PBS (w/o Ca, Mg) on ice. 10 μl of the neutrophil cell suspension was diluted with 990 μl of Trypan blue (1:100) and cells counted using a hemacytometer. The cell number and viability were determined. […]
Neutrophils were resuspended in hypotonic fluorochrome solution at a density of 5×10^6 cells/ml. Propidium iodide fluorescence of individual nuclei was evaluated in FL2 and measured on a logarithmic scale while gating on physical parameters in forward and side scatter to exlude cell debris.
At least 10,000 events per sample were collected and the results were evaluated relative to a non-apoptotic neutrophil population. […]

The subject of the next assay is mammary epithelial cells. Particulars: absence of extracellular matrix; cited from earlier work.
Where [4] appears, read: after granulocyte culture for 72 hours.

Turning to `Cc1c(C(=O)N[C@H](C(=O)NC(CC(=O)O)C(=O)COC(=O)c2c(Cl)cccc2Cl)C(C)C)n(C)c2ccccc12` (stereo partly drawn) [Example 70, N-[N-(1,3-dimethyl-indole-2-carbonyl)-valinyl]-3-amino-5-(2,6-dichlorobenzoyl)oxy-4-oxo-pentanoic Acid], the “maintenance of the respiratory burst” value is “partially maintained” with granulocytes [1] (setting [4]) and “substantially maintained” in the assay on granulocytes [1] (for 48 hours). Moreover, the “Percentage of diploid granulocytes in whole blood” value in assay [2] is given as 96%.
For `CC(=O)N[C@@H](Cc1ccc(O)cc1)C(=O)N[C@H](C(=O)N[C@@H](C)C(=O)N[C@H](C=O)CC(=O)O)C(C)C` [acetyl-YVAD-aldehyde], the “block of the death of motoneurons” value in the assay on motoneurons is recorded as “blocked”.
Take `CC(=O)N[C@@H](CC(=O)O)C(=O)N[C@@H](CCC(=O)O)C(=O)N[C@H](C(=O)N[C@H](C=O)CC(=O)O)C(C)C` [acetyl-DEVD-aldehyde]: in the assay with T-lymphocyte cell line, the “inhibition of anti-Fas induced apoptosis” value was “inhibited”.
As to `CC(=O)NC(Cc1ccc(O)cc1)C(=O)NC(C(=O)NC(C)C(=O)NC(CC(=O)O)C(=O)C=[N+]=[N-])C(C)C` (stereo not drawn) [AC-Tyr-Val-Ala-Asp-COCHN2], the “inhibition of the enzyme (ICE)” value on ICE was “potent, competitive, irreversible inhibitor”.
In the case of `CC(=O)N[C@@H](Cc1ccc(O)cc1)C(=O)N[C@H](C(=O)N[C@@H](C)C(=O)N[C@@H](CC(=O)O)C(=O)CCl)C(C)C` [acetyl-YVAD-chloromethylketone], the “block of the death of motoneurons” value in the assay on motoneurons is recorded as “blocked”.
As for `COC(=O)C[C@H](NC(=O)[C@H](C)NC(=O)[C@@H](NC(=O)OCc1ccccc1)C(C)C)C(=O)CF` [zVADfmk] (Cbz-Val-Ala-Asp(OMe)-CH2F), in the assay on granulocytes [3], the “effect on improving granulocyte survival” value was “weak effect”. Besides, the “maintenance of the respiratory burst” value in the assay with granulocytes [1] (opsonized zymosan, chemiluminescence) is listed as “did not maintain the respiratory burst”.
In the case of `CC(C)(C)OC(=O)N[C@@H](CC(=O)OCc1ccccc1)C(=O)CCl` [Boc-D-(benzyl) chloromethylketone], the “prevention of cell death of mammary epithelial cells” value in the assay with mammary epithelial cells is given as “prevented”.
Regarding `Cc1c(C(=O)N[C@H](C(=O)NC(CC(=O)O)C(=O)CF)C(C)C)n(C)c2ccccc12` (stereo partly drawn) [Example 43, N-[(1,3-dimethylindole-2-carbonyl)Valinyl]-3-amino-4-Oxo-5-fluoropentanoic Acid], the “maintenance of the respiratory burst” value in the assay with granulocytes [1] (setting [4]) is “partially maintained”; in the assay on granulocytes [1] (for 48 hours) it was “substantially maintained”.
